Experimental data taken from PMC8746695, “Zinc-Chelating Compounds as Inhibitors of Human and Bacterial Zinc Metalloproteases” (Molecules, 2021).

Target: T1, MMP-14 (Homo sapiens, UniProt P50281)
T1 construct: human MT1-MMP/MMP-14 (catalytic domain); purchased Calbiochem (San Diego, CA, USA)
Assay: Time-dependent slow, reversible/irreversible binding of TPA to MMP-14 (pre-incubation and micro-dialysis)
Assay type: biochemical
Conditions: for vi/v0 MMP-14: 100 μM TPA
Procedure: We tested if TPA is a time-dependent irreversible or reversible inhibitor of MMP-14. In these experiments, two different concentrations of MMP-14 (45 and 5.6 nM) were pre-incubated up to 48 min at 37 °C with 10.0 and 11.1 μM of TPA, respectively, as described in Materials and Methods. As controls, the same amount of MMP-14 (without TPA but with the same concentration of DMSO) was identically pre-incubated at 37 °C. […] In the presence of 100 μM TPA, vi/v0 was 0.61 after 2 min and 0.03 after 11 min pre-incubation at 37 °C. To determine whether the observed time-dependent inhibition was due to reversible or irreversible inhibition, a solution of 45 nM MMP-14 was first pre-incubated for approximately 40 min at 37 °C with 10 μM TPA (1% DMSO in assay buffer, pH 7.5). As a control, MMP-14 (without TPA but with the same concentration of DMSO) was also pre-incubated for approximately 40 min at 37 °C. […]
In pre-incubation tests with high concentration of MMP-14, 90 μL 50 nM MMP-14 was mixed with 9.0 μL 110 μM TPA (dissolved in 0.1 M Hepes pH 7.5 containing 10 mM CaCl2, 0.005% Brij-35 and 10% DMSO) and incubated at 37 °C for up to 48 min. […] At different time points, 10 μL of the enzyme (with and without TPA) was added to 90 μL of 0.1 M Hepes pH 7.5 containing 10 mM CaCl2, 0.005% Brij-35 and 11.1 μM ES001 and the initial rate reaction velocity (v) was determined as described in Section 3.4. using a Perkin Elmer LS 50 Luminescence spectrometer. […]
In pre-incubation tests with a low concentration of MMP-14, 60 μL 50 nM MMP-14 was mixed with 420 μL 0.1 M Hepes pH 7.5 (containing 10 mM CaCl2, 0.005% Brij-35) and 60 μL of either 0.1 M Hepes pH 7.5 containing 10 mM CaCl2, 0.005% Brij-35 and 10% DMSO (control) or 60 μL 100 μM TPA (dissolved in 0.1 M Hepes pH 7.5 containing 10 mM CaCl2, 0.005% Brij-35 and 10% DMSO). At different time points, 90 μL of the enzyme (with and without TPA) was mixed with 10 μL 100 μM ES001 and the initial rate of the reaction was determined as described above. […]

c1ccc(CN(Cc2ccccn2)Cc2ccccn2)nc1 [TPA, tri(2-pyridinemethyl)amine, reference compound]
vi/v0 MMP-14 (2 min pre-incubation at 37 °C): 0.61
vi/v0 MMP-14 (11 min pre-incubation at 37 °C): 0.03
type of inhibition of MMP-14 (pre-incubation 37 °C, micro-dialysis 4 °C): slow, reversible inhibitor
